Reference: patent US12653840B2, “Methods for production of platelets from pluripotent stem cells and compositions thereof” (Astellas Institute for Regenerative Medicine, priority 2012, dated 2026)
Entries after “also recorded” stand apart in the source; their conditions may differ.

Key:
[1] = tested on: CD42b; settings: reported; cited from earlier work
[2] = tested on: MKs derived from HA-iPS; test: Platelet generation from MKs under constant shear force in a microfluidic device; assay type: cell-based, human
Method: Matured MKs, derived from HA-iPS and MA09 hES lines, were used. Equal numbers of MKs suspended in MK-specific medium were loaded into a microfluidic device in the presence or absence of 20 μM MMP inhibitor GM6001. Constant shear force was applied to the MKs throughout the culture period. MK-medium downstream of MKs was collected at 30 minute intervals for a period of 6 hours. Platelet number and purity (i.e., percentage of total cells that are CD41a^+CD42b^+) in the collected media were measured using flow cytometer.
FIGS. 22-24 provide the results of platelet generation from MKs derived from HA-iPS. The platelets were generated under a constant shear force defined by a flow rate of […] μl/min. […] Purity is expressed at the percentage of total harvested cells that are CD41a+CD42b+.

[3] = tested on: iPS derived megakaryocytes; test: Platelet formation in static culture with MMP inhibitors; assay type: cell-based, human
Description: FIG. 27. Platelet purity as a result of static culture in the presence of MMP8 specific inhibitor MMP8-I (second bar), pan-MMP inhibitor GM6001 (third bar), or the combination of MMP8-I and GM6001 (fourth bar). The MMP8-I is (3R)-(+)-[2-(4-Methoxybenzenesulfonyl)-1,2,3,4-tetrahydroisoquinoline-3-hydroxamate], and it is commercially available from Millipore. The first bar is the control.
FIG. 28. Platelets numbers as a result of static culture in the presence of MMP8 specific inhibitor MMP8-I (second bar), pan MMP inhibitor GM6001 (third bar), or the combination of MMP8-I and GM6001 (fourth bar). The first bar is the control.
The peak of platelet production is determined by measuring platelet content in the culture, for example on a daily basis for several days. It is typically 4-7 days after the beginning of the MLP differentiation culture period, although it may be longer or it may be shifted.

[4] = tested on: cells undergoing in vitro megakaryopoiesis; test: iBET-151 in PVE-HE to MLP differentiation culture, harvest at day 6+4; assay type: cell-based, human
Method: Megakaryocyte progenitor (MLP) numbers harvested at day 6+4 (i.e., day 10 of differentiation) as a function of increasing dose of iBET-151 (in μM). iBET is added to the culture at the 6+3 day time frame, and MLPs are exposed to iBET for a period of about 24 hours prior to their harvest. iBET concentrations: 0 (left bar), 0.1 microM (middle bar), 0.25 microM (right bar). […] CD14+ cell purity in cell population harvested at day 6+4 as a function of increasing dose of iBET-151. iBET concentrations: 0 (left bar), 0.1 microM (middle bar), 0.25 microM (right bar).

[5] = tested on: c-myc; test: Relative quantitative mRNA analysis on day 6+4; assay type: cell-based, human; settings: 0.1 and 0.25 microM
Description: (§1) FIG. 32. Relative quantitative analysis of mRNA of c-myc and GATA-1 on day 6+4 as a function of increasing dose of iBET-151. iBET concentrations: 0 (left bar), 0.1 microM (middle bar), 0.25 microM (right bar) for each triplet.

[6] = tested on: GATA-1; test: Relative quantitative mRNA analysis on day 6+4; assay type: cell-based, human; settings: 0.1 and 0.25 microM
Description: as §1

[7] = tested on: human and murine MLL-fusion leukemic cell lines; settings: through induction of early cell cycle arrest and apoptosis; cited from earlier work
[8] = tested on: developing mouse platelet thrombus; test: In vivo thrombus formation after laser-induced cremaster arteriolar wall injury, intravital microscopy; design: species or system macrophage-depleted NOD/SCID mice; settings: platelets pretreated with ReoPro
Method: Third, hiPSC-PLTs were analyzed for functionality using an in vivo assay system measuring thrombus formation in macrophage-depleted NOD/SCID mice. Briefly, intravital microscopy of cremaster muscle arterioles was performed as previously described (Cell Research 2011 21:530-45). Macrophage-depleted NOD/SCID mice were anesthetized by intraperitoneal injection of ketamine (125 mg/kg) and xylazine (25 mg/kg). A tracheal tube was inserted and the mouse was placed on a thermo-controlled blanket. After incision of the scrotum, the cremaster muscle was exteriorized onto an intravital microscopy tray. The muscle preparation was superfused with thermo-controlled (37° C.) and aerated (95% N2, 5% CO2) bicarbonate-buffered saline throughout the experiment. The cremaster muscle arteriolar wall was injured by micropoint laser ablation using a Micropoint Laser System (Photonics Instruments). […] Fluorescence and brightfield images were recorded using an Olympus BX61W microscope with a 60 x/1.0 NA water immersion objective and a high speed camera (Hamamatsu C9300) through an intensifier (Video Scope International). Data were collected for 5 min following vessel wall injury and analyzed using Slidebook v5.0 (Intelligent Imaging Innovations).

For CNC(=O)[C@H](Cc1c[nH]c2ccccc12)NC(=O)[C@@H](CC(=O)NO)CC(C)C [GM6001], the “CD42b shedding from platelets” value [1] is given as “inhibit CD42b shedding”, the “platelet purity (percentage of total harvested cells that are CD41a+CD42b+)” value ([2]; 20 μM, added at beginning of culture, constant shear force, vs DMSO) is given as “significantly improved” and the “platelet yield / platelet numbers” value ([2]; 20 μM, constant shear force, vs DMSO) is given as “significantly improved; also recorded: significantly more platelets”.

With COc1ccc(S(=O)(=O)N2Cc3ccccc3C[C@@H]2C(=O)NO)cc1 [MMP8 specific inhibitor, (3R)-(+)-[2-(4-Methoxybenzenesulfonyl)-1,2,3,4-tetrahydroisoquinoline-3-hydroxamate]] the “purity of iPS-derived platelets (CD41a+CD42b+)” value ([3]; added at peak of platelet production of MKs, static culture, control 43.7%) was 65.5%, the “potency in protecting platelet function” value ([3]; comparative study of several specific MMP inhibitors) was “more potency than GM6001” and the “CD41a+CD42b+ platelets produced, compared to GM6001” value ([3]; static culture) was “Significantly more”. The “purity, more than obtained from GM6001-treated cultures” value ([3]; static culture) was “approximately 10%”.

In the case of COc1cc2c(cc1-c1c(C)noc1C)ncc1[nH]c(=O)n([C@H](C)c3ccccn3)c12 [i-BET-151], the “number of CD14+ myeloid cells” value ([4]; 0.1 and 0.25 microM, day 6+4) is reported as “dose-dependent decrease”, the apoptosis ([4]; high dose) is reported as “triggers massive apoptosis” and the “numbers of MK progenitors” value ([4]; lower doses in the micromolar (or submicromolar) range, 0.1 and 0.25 microM, about 24 hours) is reported as “increased numbers”. The “c myc gene expression (mRNA)” value [5] was “dose:-dependent inhibition”, the “GATA1 gene expression (mRNA)” value [6] was “up-regulated” and the “efficacy against MLL-fusion leukemic cell lines” value [7] was “profound efficacy”.

With dextran the platelet formation ([2]; 8% dextran added to increase viscosity of culture medium, with GM6001, shear force) was “negative impact”.

B1: ReoPro: Fab fragment of a human-murine chimeric monoclonal antibody that binds specifically to αIIbβIII and inhibits platelet function (antibody, chains of the INN, looked up, V domains shown)
VH: EVQLQQSGTVLARPGASVKMSCEASGYTFTNYWMHWVKQRPGQGLEWIGAIYPGNSDTSYIQKFKGKAKLTAVTSTTSVYMELSSLTNEDSAVYYCTLYDGYYVFAYWGQGTLVTVSA
VL: EIVLTQSPVTLSVTPGDSVSLSCRASRDISNNLHWFQQTSHESPRLLIKYASQSMSGIPSRFSGSGSGTDFTLSINSVETEDFGMYFCQQTNSWPYTFGGGTKLEIK
modifications: Fab
In the case of B1, the “number of platelets bound to / incorporating in the thrombus after ReoPro pretreatment” value [8] is reported as “inhibited; also recorded: markedly reduced”.
